pKd: −log10 of the molar value. One block for each compound: values may come before it.
Tests used:
[1] = tested on: DOX-induced chronic heart failure (CHF) rat model; assay: Echocardiography (LVEF%, LVFS%) in DOX-induced CHF rats; assay type: in vivo
Description: Experiment I, 48 rats were randomly divided into six groups: (1) the CON group; (2) the DOX group; (3) the DOX + enalapril (ENP, positive control, 1.8 mg/kg) group; (4) the DOX + SXT at low dose group (4 g/kg); (5) the DOX + SXT at middle dose group (8 g/kg); and […] the DOX + SXT at high dose group (16 g/kg). Except those rats in the CON group, the remaining rats received DOX at a 2.5 mg/kg per injection to a cumulative dose of 15 mg/kg. The dose of SXT for the low-dose group was set at 4 g/kg, based on the minimum human clinical daily dose (48.5 g, Table S2) converted to an equivalent rat dose using body surface area normalization (48.5 g/70 kg × 6.3 ≈ 4.4 g/kg, rounded to 4 g/kg). To evaluate a clear dose–response relationship, the medium and high doses were established at 8 g/kg and 16 g/kg, respectively, corresponding to 2 fold and 4 fold the low dose. This gradient dosing strategy is consistent with the Technical Guidelines for Pharmacodynamic Studies of Traditional Chinese Medicine and the Technical Guidelines for General Pharmacology Studies of Traditional Chinese Medicine and Natural Drugs, and is further supported by our previous study on the effective dose range of SXT in a rat model of doxorubicin-induced chronic heart failure. Heart function was monitored by echocardiography analysis at day 39, and the CHF model was considered to be successfully established when the left ventricular ejection fraction (LVEF%) values were reduced to 50%. Urinary samples were collected at five time points (0, 10, 20, 30, and 39 d), while fecal samples were collected before the rats were euthanized. Subsequently, the rats were anesthetized, and blood samples and heart and liver tissues were collected. All bio-samples were stored at − 80 °C until analysis.
Experiment II was conducted to specifically confirm the exacerbated cardiac abnormality of phenylalanine in the DOX-induced CHF rats. […] Heart function was detected as in the experiment I.
Echocardiographic (ECG) measurements were performed using M-mode tracings and continuous Doppler with a Vevo 2100 system (Visual Sonics, Toronto, ON, Canada). Rats were anesthetized with isoflurane prior to imaging. Cardiac function indices including left ventricular ejection fraction (LVEF%) and left ventricular fractional shortening (LVFS%) were measured and recorded.

[2] = Rat body weight; assay type: in vivo; conditions: CHF rats, treatment vs DOX group, experiment I
Description: Experiment I, 48 rats were randomly divided into six groups: (1) the CON group; (2) the DOX group; (3) the DOX + enalapril (ENP, positive control, 1.8 mg/kg) group; (4) the DOX + SXT at low dose group (4 g/kg); (5) the DOX + SXT at middle dose group (8 g/kg); and […] the DOX + SXT at high dose group (16 g/kg). Except those rats in the CON group, the remaining rats received DOX at a 2.5 mg/kg per injection to a cumulative dose of 15 mg/kg. The dose of SXT for the low-dose group was set at 4 g/kg, based on the minimum human clinical daily dose (48.5 g, Table S2) converted to an equivalent rat dose using body surface area normalization (48.5 g/70 kg × 6.3 ≈ 4.4 g/kg, rounded to 4 g/kg). To evaluate a clear dose–response relationship, the medium and high doses were established at 8 g/kg and 16 g/kg, respectively, corresponding to 2 fold and 4 fold the low dose. […] Heart function was monitored by echocardiography analysis at day 39, and the CHF model was considered to be successfully established when the left ventricular ejection fraction (LVEF%) values were reduced to 50%. […]

[3] = tested on: cardiac tissues of DOX-induced CHF rats; assay: Heart histopathology (H&E, Masson) and TUNEL apoptosis detection; assay type: in vivo, rat
Description: Cardiac tissues were fixed in 4% paraformaldehyde, embedded in paraffin, and sectioned at 4–5 μm thickness. Hematoxylin and eosin (H&E) staining was performed to assess histopathological changes, while Masson’s trichrome staining was used to evaluate cardiac fibrosis. Apoptosis in cardiac tissues was detected using a TUNEL assay kit (C1088, Beyotime, Shanghai, China).

[4] = tested on: DOX-induced CHF rats; assay: Serum biochemical parameters (BNP, CK, LDH, ALT, AST) by ELISA kits; assay type: in vivo, rat
Description: (§1) Serum biochemical parameters including brain natriuretic peptide (BNP), creatine kinase (CK), lactate dehydrogenase (LDH), alanine aminotransferase (ALT), and aspartate aminotransferase (AST) were measured using commercial ELISA kits (Nanjing Jiancheng Bioengineering Institute, Nanjing, China) according to the manufacturer's instructions. Superoxide dismutase (SOD), and malondialdehyde (MDA) levels in liver and heart tissues were measured using assay kits from […] Biotechnology (Changsha, China). Phenylalanine and tyrosine concentrations in the cell were determined using an ELISA kit from Abmart (Shanghai, China).

[5] = tested on: AML12 cells; assay: AML12 cell viability (CCK8); assay type: cell-based
Description: (§2) Mouse hepatocellular cell lines (AML12), purchased from the Shanghai Cell Bank of Chinese Academy of Sciences (Shanghai, China), were cultured in Dulbecco’s Modified Eagle Medium (DMEM) supplemented with 10% fetal bovine serum (FBS) and 2 mM L-glutamine and 1% pyruvate and maintained at 37 °C in a […], 5% CO2 incubator. Cells were seeded at a density of 5 × 10^5 cells/well in 6-well plates. […] Cells’ survival rate was detected by Cell Counting Kit-8 (CCK8) Reagents (Thermo Scientific, Singapore).

[6] = tested on: phenylalanine metabolism; assay: Phenylalanine and tyrosine levels in rat serum, liver and heart tissues (LC/MS); assay type: in vivo; conditions: experiment II, DOX + phenylalanine 280 mg/kg, BH4 14 mg/kg or SXT 16 g/kg
Description: Phenylalanine and tyrosine in the different rat bio-samples were analyzed by LC/MS using an Agilent 1290 Ultra high-performance liquid chromatography (UHPLC) and an Agilent 6460 triple-quadrupole tandem mass spectrometer (QQQ-MS) (Agilent Inc, USA). Data were acquired by using an Agilent Zorbax SB-C18 column (3.0 × 150 mm, 5 μm) as described previously.

[7] = tested on: phenylalanine hydroxylase (PAH); assay: PAH expression in liver and heart (western blotting, immunofluorescence); assay type: in vivo, rat; conditions: experiment II; DOX vs CON, co-treatments vs DOX
Description: Immunofluorescence staining was performed on tissue sections to detect phenylalanine hydroxylase (PAH), prostaglandin-endoperoxide synthase 2 (PTGS2), and reactive oxygen species (ROS). Primary antibodies against PAH and PTGS2 were used, while ROS was detected using the DCFH-DA probe. Nuclei were counterstained with DAPI. Images were captured using a fluorescence microscope.
Protein was extracted from liver or heart tissue samples (30 mg) using lysis buffer. Total protein concentration was determined using a BCA protein assay kit (Thermo Fisher Scientific, USA). Equal amounts of protein from each sample were separated on 10–12% SDS-PAGE gels and transferred to PVDF membranes. Membranes were blocked with quick blocking buffer for 30 min, then incubated with anti-PAH primary antibody (1:1000 dilution) overnight at 4 °C. After washing, membranes were incubated with a secondary antibody for 1 h at 37 °C. Protein bands were visualized using an Odyssey infrared imaging system (JS-1070, Shanghai Peiqing Science & Technology Co., Ltd, China). Band intensities were quantified using ImageJ software.

[8] = tested on: DOX-induced CHF rats; assay: Oxidative stress in heart and liver tissue (SOD, MDA, ROS, PTGS2); assay type: in vivo, rat; conditions: experiment II, co-treatment with DOX
Description: as §1, with “Immunofluorescence staining was performed on tissue sections to detect phenylalanine hydroxylase (PAH), prostaglandin-endoperoxide synthase 2 (PTGS2), and reactive oxygen species (ROS). Primary antibodies against PAH and PTGS2 were used, while ROS was detected using the DCFH-DA probe. Nuclei were counterstained with DAPI. Images were captured using a fluorescence microscope. Serum” for “Serum”

[9] = tested on: heart tissues; assay: Transmission electron microscopy of heart tissue; assay type: in vivo, rat; conditions: experiment II; DOX alone, co-treatments vs DOX
Description: Freshly excised heart tissues were immediately fixed in 2.5% glutaraldehyde at 4 °C overnight. After washing with 0.1 M cacodylate trihydrate buffer, samples were post-fixed with 1% osmium tetroxide for 1 h. Tissues were then dehydrated through a graded ethanol series, incubated in acetone, and embedded in epoxy resin. Ultrathin sections were mounted on copper grids and imaged using a Hitachi HT7800 transmission electron microscope (Tokyo, Japan).

[10] = tested on: PAH activity in AML12 cells; assay type: cell-based; conditions: BH4 10 μM; timosaponin B-II, neomangiferin, anemarrhenasaponin I 5, 10, 20 μM; timosaponin AIII 0.1, 0.2, 0.5 μM
Description: Serum biochemical parameters including brain natriuretic peptide (BNP), creatine kinase (CK), lactate dehydrogenase (LDH), alanine aminotransferase (ALT), and aspartate aminotransferase (AST) were measured using commercial ELISA kits (Nanjing Jiancheng Bioengineering Institute, Nanjing, China) according to the manufacturer’s instructions. Superoxide dismutase (SOD), and malondialdehyde (MDA) levels in liver and heart tissues were measured using assay kits from Aifang Biotechnology (Changsha, China). Phenylalanine and tyrosine concentrations in the cell were determined using an ELISA kit from Abmart (Shanghai, China).
as §2

[11] = molecular target: Phenylalanine hydroxylase (PAH) protein (Homo sapiens, UniProt P00439); assay: Surface Plasmon Resonance (SPR) analysis, Biacore T200; assay type: binding; conditions: PAH immobilized on CM5 chip, read-out: dissociation constant (Kd)
Phenylalanine hydroxylase (PAH) protein, sequence (P00439 whole entry): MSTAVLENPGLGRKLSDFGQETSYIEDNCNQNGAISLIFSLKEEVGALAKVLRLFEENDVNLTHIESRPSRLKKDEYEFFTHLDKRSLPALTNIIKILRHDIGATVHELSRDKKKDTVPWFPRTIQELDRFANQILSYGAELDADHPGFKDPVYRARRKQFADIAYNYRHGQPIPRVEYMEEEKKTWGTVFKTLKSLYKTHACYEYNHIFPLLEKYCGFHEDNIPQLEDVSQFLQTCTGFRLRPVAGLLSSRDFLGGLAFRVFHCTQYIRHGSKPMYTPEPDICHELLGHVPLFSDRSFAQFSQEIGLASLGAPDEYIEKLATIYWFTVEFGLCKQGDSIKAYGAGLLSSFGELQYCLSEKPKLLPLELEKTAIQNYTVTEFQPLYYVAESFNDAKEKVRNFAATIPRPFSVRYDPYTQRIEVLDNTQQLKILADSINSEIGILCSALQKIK
Description: SPR assays were conducted using a Biacore T200 system (GE Healthcare Life Sciences, USA). Phenylalanine hydroxylase (PAH) protein was immobilized on CM5 sensor chips using an amine-coupling kit (BR100050, GE Healthcare) following standard procedures. […] Samples were injected over reference and PAH-immobilized flow cells at a flow rate of 30 μL/min, with 120 s contact time and 120 s dissociation time. Kinetic parameters were calculated using Biacore T200 evaluation software.

[12] = experiment II, co-treatment vs DOX group

Compound: CCOC(=O)[C@H](CCc1ccccc1)N[C@@H](C)C(=O)N1CCC[C@H]1C(=O)O [ENP, Enalapril]
LVEF and LVFS ([1]; DOX + ENP 1.8 mg/kg vs DOX group, p < 0.001): significantly higher | body weight [2]: partially restored | TUNEL-positive cardiomyocytes ([3]; treated groups vs DOX group): reduction | serum ALT and AST levels ([4]; treated groups vs DOX group, experiment I): markedly reduced

Compound: COc1ccc(-c2coc3cc(O)ccc3c2=O)cc1O [Calycosin]
non-cytoxic concentration ([5]; AML12 cells): 5 to 20 µM

pKd [11]: 4.97
Compound: C[C@H](O)[C@H](O)[C@H]1CNc2nc(N)[nH]c(=O)c2N1 [BH4, tetrahydrobiopterin]
LVEF and LVFS / DOX-induced cardiac dysfunction ([1]; experiment II, DOX + Phe 280 mg/kg, BH4 14 mg/kg or SXT 16 g/kg vs DOX group): partially alleviated | DOX-induced cardiac injury and collagen accumulation (H&E and Masson) [3, 12]: ameliorated | DOX-induced increases in serum levels of BNP, CK, LDH, ALT and AST [4, 12]: significantly inhibited | serum phenylalanine concentration [6]: 46.9791 µM | PAH expression in heart tissue [7]: decreased | PAH expression in liver tissue [7]: increased | ROS production and PTGS2 expression in the heart [8]: effectively attenuated | mitochondrial ultrastructure of heart (electron microscopy) [9]: reversed | non-cytoxic concentration ([5]; mouse): 5 to 20 µM | phenylalanine levels in AML12 cells increased by DOX [10]: markedly decreased

Compound: C[C@H]1CC[C@@]2(OC1)O[C@H]1C[C@H]3[C@@H]4CC[C@@H]5C[C@@H](O[C@@H]6O[C@H](CO)[C@H](O)[C@H](O)[C@H]6O[C@@H]6O[C@H](CO)[C@@H](O)[C@H](O)[C@H]6O)[C@@H](O)C[C@]5(C)[C@H]4CC[C@]3(C)[C@H]1[C@@H]2C [Timosaponin A-II]
non-cytoxic concentration ([5]; AML12 cells): 0.1 to 0.5 µM

Compound: COc1ccc(-c2coc3cc(O)ccc3c2=O)cc1 [Formononetin]
non-cytoxic concentration ([5]; AML12 cells): 5 to 20 µM

Compound: C[C@H]1CC[C@@]2(OC1)O[C@H]1C[C@H]3[C@@H]4CC[C@@H]5C[C@@H](O[C@@H]6O[C@H](CO)[C@H](O)[C@H](O)[C@H]6O[C@@H]6O[C@H](CO)[C@@H](O)[C@H](O)[C@H]6O)CC[C@]5(C)[C@H]4CC[C@]3(C)[C@H]1[C@@H]2C [Timosaponin A-III]
non-cytoxic concentration ([5]; mouse): 0.1 to 0.5 µM | phenylalanine levels in AML12 cells increased by DOX [10]: significantly reduce | pKd [11]: > 5.00

Compound: COc1ccc(/C=C/C(=O)O)cc1O [Isoferulic acid]
non-cytoxic concentration ([5]; AML12 cells): 5 to 20 µM

Compound: CC(C)(O)[C@@H]1CC[C@](C)([C@H]2[C@@H](O)C[C@@]3(C)[C@@H]4C[C@H](O[C@@H]5O[C@H](CO)[C@@H](O)[C@H](O)[C@H]5O)[C@H]5C(C)(C)[C@@H](O[C@@H]6OC[C@@H](O)[C@H](O)[C@H]6O)CC[C@@]56C[C@@]46CC[C@]23C)O1 [Astragaloside IV]
non-cytoxic concentration ([5]; AML12 cells): 5 to 20 µM

From paper PMC12794274, “Therapeutic potential of Sheng-Xian-Tang in doxorubicin-induced chronic heart failure by regulation of phenylalanine metabolism disruption” (Chinese Medicine, 2026)
